Test results reported in patent US20230159532A1, “PARATHYROID HORMONE (PTH) RECEPTOR ANTAGONISTS AND USES THEREOF” (Crinetics Pharmaceuticals, Inc., priority 2021, published 2023).
pKi: −log10 of the molar value.

Target: T1, human PTHR1 receptor (Homo sapiens, UniProt Q03431)
T1 construct: purchased Eurofins HTS030M
T1 sequence (Q03431 27-593): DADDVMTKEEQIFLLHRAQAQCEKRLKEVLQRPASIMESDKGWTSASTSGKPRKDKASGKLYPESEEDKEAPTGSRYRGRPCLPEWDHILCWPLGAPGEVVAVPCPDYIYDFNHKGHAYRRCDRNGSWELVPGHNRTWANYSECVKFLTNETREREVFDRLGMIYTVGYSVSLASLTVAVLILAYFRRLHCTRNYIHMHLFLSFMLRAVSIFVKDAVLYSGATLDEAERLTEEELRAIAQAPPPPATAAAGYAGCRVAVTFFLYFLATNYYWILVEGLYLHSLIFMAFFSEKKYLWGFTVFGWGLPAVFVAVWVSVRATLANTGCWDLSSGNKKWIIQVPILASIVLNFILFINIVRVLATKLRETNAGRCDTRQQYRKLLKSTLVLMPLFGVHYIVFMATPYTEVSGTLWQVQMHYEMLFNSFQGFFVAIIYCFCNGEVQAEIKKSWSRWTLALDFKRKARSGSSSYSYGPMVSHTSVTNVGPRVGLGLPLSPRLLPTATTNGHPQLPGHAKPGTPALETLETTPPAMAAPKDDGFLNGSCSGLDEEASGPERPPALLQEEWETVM
Assay: Competitive antagonist binding assay for hPTH-R1 (radioactive competition binding, SPA beads)
Conditions: human PTHR1 membranes, [125I]-[Nle8,18,Tyr34]-PTH(1-34) 0.2 nM, 90 minutes at room temperature; read-out: hPTHR1 Ki
Summary of the method: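 Human PTHR1 membranes on SPA beads incubated 90 min at room temperature with compound (typically 0-10,000 nM final) and 0.2 nM [125I]-[Nle8,18,Tyr34]-PTH(1-34) in HEPES buffer with MgCl2, CaCl2, BSA, Triton X-100 and protease inhibitors, pH 7.4. Scintillation signal read; Ki values derived.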

Row | pKi | Compound
1 | > 7.00 | CCN1C(=O)N(c2c(F)cc(NCCNC[C@@H](O)c3ccccc3)cc2F)c2cc(C#N)ccc2-c2cc(Cl)cnc21 [1-239, 4-chloro-10-{2,6-difluoro-4-[(2-{[(2S)-2-hydroxy-2-phenylethyl]amino}ethyl)amino]phenyl}-8-ethyl-9-oxo-6,8,10-triazatricyclo[9.4.0.0^2,7]pentadeca-1(11),2(7),3,5,12,14-hexaene-13-carbonitrile]
2 | > 7.00 | CCN1C(=O)N(c2c(F)cc(NCCN[C@@H](CC(C)C)C(=O)O)cc2F)c2cc(C#N)ccc2-c2cc(Cl)cnc21 [1-240, (2S)-2-({2-[(4-{4-chloro-13-cyano-8-ethyl-9-oxo-6,8,10-triazatricyclo[l9.4.0.0^2,7]pentadeca-1(11),2(7),3,5,12,14-hexaen-10-yl}-3,5-difluorophenyl)amino]ethyl}amino)-4-methylpentanoic acid]
3 | > 7.00 | CCN1C(=O)N(c2c(F)cc(N3CC[C@H](N)C3)cc2F)c2cc(C#N)ccc2-c2cc(Cl)cnc21 [1-241, 10-{4-[(3 S)-3-aminopyrrolidin-1-yl]-2,6-difluorophenyl}-4-chloro-8-ethyl-9-oxo-6,8,10-triazatricyclo[9.4.0.0^2,7]pentadeca-1(11),2(7),3,5,12,14-hexaene-13-carbonitrile]
4 | > 7.00 | CCN1C(=O)N(c2c(F)cc(NCCNCC(=O)O)cc2F)c2cc(Cl)ccc2-c2cc(Cl)cnc21 [1-242, 2-({2-[(4-{4,13-dichloro-8-ethyl-9-oxo-6,8,10-triazatricyclo[9.4.0.0^2,7]pentadeca-1(11),2(7),3,5,12,14-hexaen-10-yl}-3,5-difluorophenyl)amino]ethyl}amino)acetic acid]
5 | 6.00 to 7.00 | CNCCNc1ccc(N2C(=O)N(C)c3ncccc3-c3ccc(Cl)cc32)cc1 [2-1, 13-chloro-8-methyl-10-(4-{[2-(methylamino)ethyl]amino}phenyl)-6,8,10-triazatricyclo[9.4.0.0^2,7]pentadeca-1(11),2(7),3,5,12,14-hexaen-9-one]
6 | 6.00 to 7.00 | CNCCNc1ccc(N2C(=O)N(C)c3ncccc3-c3ccc(Cl)cc32)c(F)c1 [2-2, 13-chloro-10-(2-fluoro-4-{[2-(methylamino)ethyl]amino}phenyl)-8-methyl-6,8,10-triazatricyclo[9.4.0.0^2,7]pentadeca-1(11),2(7),3,5,12,14-hexaen-9-one]
7 | > 7.00 | CCN1C(=O)N(c2ccc(NCCNC)cc2)c2cc(Cl)ccc2-c2cc(Cl)cnc21 [2-3, 4,13-dichloro-8-ethyl-10-(4-{[2-(methylamino)ethyl]amino}phenyl)-6,8,10-triazatricyclo[9.4.0.0^2,7]pentadeca-1(11),2(7),3,5,12,14-hexaen-9-one]
8 | > 7.00 | CCN1C(=O)N(c2ccc(NCCNC)cc2)c2cc(Cl)ccc2-c2cc(F)cnc21 [2-4, 13-chloro-8-ethyl-4-fluoro-10-(4-{[2-(methylamino)ethyl]amino}phenyl)-6,8,10-triazatricyclo[9.4.0.0^2,7]pentadeca-1(11),2(7),3,5,12,14-hexaen-9-one]
9 | > 7.00 | CCN1C(=O)N(c2ccc(NCCNC)cc2)c2cc(Cl)ccc2-c2cc(C)cnc21 [2-5, 13-chloro-8-ethyl-4-methyl-10-(4-{[2-(methylamino)ethyl]amino}phenyl)-6,8,10-triazatricyclo[9.4.0.0^2,7]pentadeca-1(11),2(7),3,5,12,14-hexaen-9-one]
10 | > 7.00 | CCN1C(=O)N(c2ccc(NCCNC)cc2)c2cc(OC)ccc2-c2cc(Cl)cnc21 [2-6, 4-chloro-8-ethyl-13-methoxy-10-(4-{[2-(methylamino)ethyl]amino}phenyl)-6,8,10-triazatricyclo[9.4.0.0^2,7]pentadeca-1(11),2(7),3,5,12,14-hexaen-9-one]
11 | > 7.00 | CCN1C(=O)N(c2ccc(NCCNCCO)cc2F)c2cc(Cl)ccc2-c2cc(Cl)cnc21 [2-7, 4,13-dichloro-8-ethyl-10-[2-fluoro-4-({2-[(2-hydroxyethyl)amino]ethyl}amino)phenyl]-6,8,10-triazatricyclo[9.4.0.0^2,7]pentadeca-1(11),2(7),3,5,12,14-hexaen-9-one]
